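Compound exposure: 48 hours, 5 concentrations, 96-well plates. The concentration for 50% growth inhibition is given as GI50.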 The source made the active and inactive calls. No stated cut-off is given here; in the data, active = GI50 up to about 1.1 µM and inactive = higher.
How the values were obtained:
Assay in all cases: DTP human tumour cell line panel, 48 h
[1] = test system: BT-549
[2] = test system: SF-268
[3] = test system: A549
[4] = test system: SNB-19
[5] = test system: SF-295
[6] = test system: K562
[7] = test system: M14
[8] = test system: ACHN
[9] = test system: T47D
[10] = test system: NCI-H226
[11] = test system: CAKI-1
[12] = test system: SW-620
[13] = test system: Malme-3M
[14] = test system: MDA-N
[15] = test system: UACC-62
[16] = test system: OVCAR-4
[17] = test system: MCF7
[18] = test system: OVCAR-8
[19] = test system: EKVX

Measured: GI50

C[N+](C)(C)/N=C\c1ccc(O)c(O)c1
inactive: [1] > 100 µM | [2] > 100 µM | [3] > 100 µM | [4] > 100 µM | [5] > 100 µM | [6] > 100 µM | [7] > 100 µM | [8] > 100 µM | [9] > 100 µM | [10] > 100 µM | [11] > 100 µM | [12] > 100 µM | [13] > 100 µM | [14] > 100 µM | [15] > 100 µM | [16] > 100 µM | [17] > 100 µM | [18] > 100 µM | [19] > 100 µM

CN1CCc2[nH]nc(-c3n[nH]c4c3CN(C)CC4)c2C1
inactive: [1] > 100 µM | [2] > 100 µM | [3] > 100 µM | [4] > 100 µM | [5] > 100 µM | [6] > 100 µM | [7] > 100 µM | [8] > 100 µM | [9] > 100 µM | [10] > 100 µM | [11] > 100 µM | [12] > 100 µM | [13] > 100 µM | [14] > 100 µM | [15] > 100 µM | [16] > 100 µM | [17] > 100 µM | [18] > 100 µM | [19] > 100 µM

COc1cc2c(cc1OC)C(C1CC1)ON(C)CC2 (centres undefined)
inactive: [1] > 100 µM | [2] > 100 µM | [3] > 100 µM | [4] > 100 µM | [5] > 100 µM | [6] > 100 µM | [7] > 100 µM | [8] > 100 µM | [9] > 100 µM | [10] > 100 µM | [11] > 100 µM | [12] > 100 µM | [13] > 100 µM | [14] > 100 µM | [15] > 100 µM | [16] > 100 µM | [17] > 100 µM | [18] > 100 µM | [19] 58.7 µM

O=c1c2cc(I)ccc2nc(Sc2ccc([N+](=O)[O-])cc2[N+](=O)[O-])n1Cc1ccccc1
inactive: [1] 1.29 µM | [2] 1.6 µM | [3] 15.2 µM | [4] 6.65 µM | [5] 5.92 µM | [6] 1.78 µM | [7] 1.94 µM | [8] 8.73 µM | [9] 1.71 µM | [10] 2.74 µM | [11] 2.64 µM | [12] 2.47 µM | [13] 5.51 µM | [14] 1.52 µM | [15] 2.29 µM | [16] 2.49 µM | [17] 2.02 µM | [18] 1.6 µM | [19] 3.55 µM

CCOP(=O)(OCC)C(F)(F)c1ccc(CC(NC(=O)OC(C)(C)C)C(=O)O)cc1 (centres undefined)
inactive: [1] > 10 µM | [2] > 10 µM | [3] > 10 µM | [4] > 10 µM | [5] > 10 µM | [6] > 10 µM | [7] > 10 µM | [8] > 10 µM | [9] > 10 µM | [10] > 10 µM | [11] > 10 µM | [12] > 10 µM | [13] > 10 µM | [14] > 10 µM | [15] > 10 µM | [16] > 10 µM | [17] > 10 µM | [18] > 10 µM | [19] > 10 µM

COC(=O)C1(Cc2ccc(C)cc2)Cc2c(C)cccc2C1=O (centres undefined)
inactive: [1] 16.3 µM | [2] 21.8 µM | [3] 18.2 µM | [4] 17.7 µM | [5] 15.4 µM | [6] 8.04 µM | [7] 16.6 µM | [8] 26.5 µM | [9] 18.5 µM | [10] 15.3 µM | [11] 25.7 µM | [12] 10.9 µM | [13] 13 µM | [14] 3.27 µM | [15] 20.8 µM | [16] 20.3 µM | [17] 11.2 µM | [18] 27.7 µM | [19] 18.2 µM

CC(=O)OC1CCC2(C)C(=CCC3C2CCC2(C)C(C(C)C(=O)O)CCC32)C1 (centres undefined)
inactive: [1] > 100 µM | [2] > 100 µM | [3] 54.8 µM | [4] > 100 µM | [5] > 100 µM | [6] > 100 µM | [7] > 100 µM | [8] 59.7 µM | [9] > 100 µM | [10] > 100 µM | [11] > 100 µM | [12] > 100 µM | [13] > 100 µM | [14] > 100 µM | [15] > 100 µM | [16] > 100 µM | [17] 51.1 µM | [18] > 100 µM | [19] 56.9 µM

CC(C)(C)OC(=O)NCCCCC(N)NC(=O)c1ccccc1 (centres undefined)
inactive: [1] > 100 µM | [2] > 100 µM | [3] > 100 µM | [4] > 100 µM | [5] > 100 µM | [6] > 100 µM | [7] > 100 µM | [8] > 100 µM | [9] > 100 µM | [10] > 100 µM | [11] > 100 µM | [12] > 100 µM | [13] > 100 µM | [14] > 100 µM | [15] > 100 µM | [16] > 100 µM | [17] > 100 µM | [18] > 100 µM | [19] > 100 µM

O=C(C/C(=N/O)c1cc(-c2ccccc2)no1)c1ccccc1
inactive: [1] 28.7 µM | [2] 18.7 µM | [3] 58.6 µM | [4] 26.5 µM | [5] 33.7 µM | [6] 41.3 µM | [7] 85.3 µM | [8] 45 µM | [9] 35.8 µM | [10] 20.8 µM | [11] 36.6 µM | [13] 41.4 µM | [14] > 100 µM | [15] 31 µM | [16] 26.5 µM | [17] 44.5 µM | [18] 21.7 µM | [19] 33.8 µM

C=C(C)[C@H]1C[C@@H]2O[C@@](O)(/C(C)=C\C(=O)/C=C(/C)C[C@H]3OC(=O)[C@@]24O[C@H]34)[C@@H]1O
inactive: [1] > 100 µM | [2] > 100 µM | [3] > 100 µM | [4] > 100 µM | [5] > 100 µM | [6] > 100 µM | [7] > 100 µM | [8] > 100 µM | [9] > 100 µM | [10] > 100 µM | [11] > 100 µM | [12] > 100 µM | [13] > 100 µM | [14] > 100 µM | [15] > 100 µM | [16] > 100 µM | [17] > 100 µM | [18] > 100 µM | [19] > 100 µM

CCCC(=O)OC[n+]1cccc(-c2c(COC(=O)NC(C)C)c(COC(=O)NC(C)C)c3n2CCC3)c1
inactive: [1] > 79.6 µM | [2] 32 µM | [3] 89.5 µM | [4] > 100 µM | [5] 71.9 µM | [6] 50.8 µM | [7] 50.9 µM | [8] 30.7 µM | [9] > 91.8 µM | [10] > 91 µM | [11] 8.51 µM | [12] 48.2 µM | [13] 66.5 µM | [14] > 100 µM | [15] 20.1 µM | [16] 58.6 µM | [17] 40 µM | [18] 55.7 µM | [19] > 100 µM

O=C1Nc2ccccc2/C1=N/N=C1NCCCCN1
inactive: [1] > 100 µM | [2] > 100 µM | [3] > 100 µM | [4] > 100 µM | [5] > 100 µM | [6] > 100 µM | [7] > 100 µM | [8] > 100 µM | [9] 57.8 µM | [10] > 100 µM | [11] > 100 µM | [12] > 100 µM | [13] > 100 µM | [14] > 100 µM | [15] > 100 µM | [16] > 100 µM | [17] > 100 µM | [18] > 100 µM | [19] > 100 µM

CCN(CC)c1ccc2cc(C(=O)Nc3cccc4ccccc34)c(=N)oc2c1
inactive: [1] 24 µM | [2] > 100 µM | [3] 75.9 µM | [4] 52.8 µM | [5] 45.5 µM | [6] > 100 µM | [7] 38.8 µM | [8] > 100 µM | [9] > 100 µM | [10] > 100 µM | [11] > 100 µM | [12] 67 µM | [13] 30.5 µM | [14] > 100 µM | [15] 63.4 µM | [16] > 100 µM | [17] > 100 µM | [18] > 100 µM | [19] > 100 µM

O=C1c2cc3c(cc2NC(c2ccccc2F)C1O)OCO3 (centres undefined)
inactive: [1] 57.1 µM | [2] 19.4 µM | [3] 11.7 µM | [4] 21.3 µM | [5] 12.1 µM | [6] 6.85 µM | [7] 10.4 µM | [8] 31.9 µM | [9] > 59.6 µM | [10] 20.9 µM | [11] 25.6 µM | [12] 5.19 µM | [13] 9.86 µM | [14] 2.36 µM | [15] 10.9 µM | [16] 35.8 µM | [17] 5.27 µM | [18] 28.2 µM | [19] 16.9 µM

CC(=O)Nc1ccc(-c2nc3cc(Cl)ccc3o2)cc1
inactive: [1] > 50 µM | [2] > 50 µM | [3] > 50 µM | [4] > 50 µM | [5] > 50 µM | [6] > 50 µM | [7] > 50 µM | [8] > 50 µM | [9] 20.4 µM | [10] 24.5 µM | [11] > 50 µM | [12] > 50 µM | [13] > 50 µM | [14] > 50 µM | [15] > 50 µM | [16] > 50 µM | [17] > 50 µM | [18] > 50 µM | [19] > 50 µM
